The target of one experiment is T1, PI3Kα(H1047R) (Homo sapiens, UniProt P42336, H1047R).
T1 construct: purchased Invitrogen or Millipore
The experiment is described as follows: KinaseGLO luminescent PI3-kinase assay, mutant PI3Kα(H1047R). The class given is biochemical. Here is the method:
(§1) Compound Preparation: KinaseGLO assay: 30× stocks of inhibitors were prepared in DMSO. A 10 mM master stock was prepared and all other stocks were generated by serial dilution of this master stock in DMSO. The final concentration of DMSO in the kinase reaction was 3.3% (v/v).
(§2) PI3-Kinase Assay: The KinaseGLO® Luminescent Kinase Assay (Promega) is a luciferin-luciferase based luminescent assay that utilizes a proprietary thermostable luciferase to quantify the ATP remaining in a solution after a kinase reaction. The luminescent signal generated using KinaseGLO® directly correlates with ATP concentration, and therefore inversely correlates with kinase activity.
(§3) PI3K enzyme sample was thawed and diluted to 100 ng/μL in enzyme dilution buffer (50 mM HEPES, pH7.5, 3.0 mM MgCl2, 1.0 mM EGTA) and stored on ice. PI3Kα enzyme was diluted to a final concentration of 1 ng/μL in reaction buffer (for PI3Kα; 50 mM HEPES, pH7.5, 100 mM NaCl, 2.0 mM DTT, 3.0 mM MgCl2, 1.0 mM EGTA, 10 μM ATP) and gently mixed. 25 μL of this kinase reaction was then aliquoted into test wells in a Microfluor2 white 96-well plate (Thermo Scientific). As a preincubation step, 1 μl of 30× compound dilutions was added to the appropriate test wells to generate a ten point dose-response ranging from 0.0 μM-10 μM inhibitor. […] Luminescent signal was detected using a SpectraMax M5 (Molecular Devices). Maximal luminescence (no PI3K activity/maximal PI3K inhibition) was determined from reaction buffer plus SC-PI substrate only controls. The minimal signal (maximal PI3K activity) was determined by the 0.0 μM compound (DMSO only) control. IC50 values were calculated via non-linear regression using GraphPad Prism data analysis software.
(§4) Compounds were assayed against the Class I PI3Kα, PI3Kβ, PI3Kγ, PI3Kδ, PI3Kα(H1047R) and PI3Kα(E545K) in the KinaseGLO assay as described in Example 2, and against the Class IV PI3K mTOR in the radiometric assay. IC50 values (μM) were determined using 8-10 point half-log dose dilutions and calculated via nonlinear regression analysis using Graphpad Prism data analysis software.
A general note: In Kinase-Glo more light means more ATP remaining.

The subject of experiment [1] is p-AKT(S473) in IGF-1-stimulated A549 cells. Description: In-cell western blot (cytoblot) of AKT phosphorylation, IGF-1-stimulated A549. As to conditions: Homo sapiens, read-out: IC50 against the p-AKT(S473) phosphorylation site. The class given is cell-based. Here is the method: Compound Preparation: Cell-based assays: 1000× stocks of inhibitors were prepared in DMSO. A 10 mM master stock was prepared and all other stocks were generated by serial dilution of the master stock in DMSO. The final concentration of DMSO in cell-based assays was 0.1% (v/v).
In-cell western blot (cytoblot) mechanistic assay; Measurement of AKT phosphorylation: The in-cell western blot assay is a quantitative 96-well immunocytochemistry assay using fixed cells. Phosphorylated AKT is detected and quantified via either enhanced chemiluminescence (ECL) or near infra-red (LI-COR) methods. Log-phase cells (10,000 A549, RKO or 30,000 U-87 MG) were plated in collagen coated, 96 well plates (Nunc) in 200 μL of growth medium (10% FBS/DMEM) and allowed to attach overnight at 37° C. in 5% CO2 incubator. Black 96 well plates were used for ECL assays. White, clear bottomed 96 well plates were used for LI-COR assays. The following day the growth medium was removed. For experiments using U-87 MG cells and RKO cells, the growth medium was replaced with 200 μL of fresh growth medium containing inhibitors dissolved in DMSO. PI3K inhibitors were dosed using half-log dilutions to generate an eight-point dose-response curve from 0.0 μM-10 μM for EC50 determinations, and the final concentration of DMSO in the test wells was 0.1% (v/v). The inhibitor treated cells were then incubated for 1 hour at 37° C. […]
After the inhibitor incubation phase (with or without IGF-1 stimulation), the medium was aspirated, the cells washed once with Tris-Buffered Saline (TBS) and then fixed in the wells by addition of 200 μL of cold 3.7% (v/v) formaldehyde diluted in TBS to test wells and incubated for 15 minutes at 4° C. […] The wells were then was washed four times with ice-cold TBS-T. Phospho-AKT luminescent signal was detected after a 1 minute incubation of test wells with 100 μL of ECL reagent using a SpectraMax M5 luminometer. (ii) Near-infrared fluorescence detection (LI-COR): After removal of the methanol, wells were blocked with 200 μL of LI-COR blocking buffer for 1 hour at room temperature. […]

A further experiment deals with T2, PI3Kβ (Homo sapiens, UniProt P42338).
T2 construct: purchased Invitrogen or Millipore
Description: KinaseGLO luminescent PI3-kinase assay, PI3Kβ. In kind it is biochemical. Here is the method: as §1, §2, §3, §4

In a further experiment the target is T3, PI3Kα(E545K) (Homo sapiens, UniProt P42336, E545K).
T3 construct: purchased Invitrogen or Millipore
The experiment is described as follows: KinaseGLO luminescent PI3-kinase assay, mutant PI3Kα(E545K). The class given is biochemical. Here is the method: as §1, §2, §3, §4

Some results are limits rather than exact numbers.

Usually IC50 stands for the midpoint of a concentration-inhibition curve.

T2 sequence (P42338 whole entry): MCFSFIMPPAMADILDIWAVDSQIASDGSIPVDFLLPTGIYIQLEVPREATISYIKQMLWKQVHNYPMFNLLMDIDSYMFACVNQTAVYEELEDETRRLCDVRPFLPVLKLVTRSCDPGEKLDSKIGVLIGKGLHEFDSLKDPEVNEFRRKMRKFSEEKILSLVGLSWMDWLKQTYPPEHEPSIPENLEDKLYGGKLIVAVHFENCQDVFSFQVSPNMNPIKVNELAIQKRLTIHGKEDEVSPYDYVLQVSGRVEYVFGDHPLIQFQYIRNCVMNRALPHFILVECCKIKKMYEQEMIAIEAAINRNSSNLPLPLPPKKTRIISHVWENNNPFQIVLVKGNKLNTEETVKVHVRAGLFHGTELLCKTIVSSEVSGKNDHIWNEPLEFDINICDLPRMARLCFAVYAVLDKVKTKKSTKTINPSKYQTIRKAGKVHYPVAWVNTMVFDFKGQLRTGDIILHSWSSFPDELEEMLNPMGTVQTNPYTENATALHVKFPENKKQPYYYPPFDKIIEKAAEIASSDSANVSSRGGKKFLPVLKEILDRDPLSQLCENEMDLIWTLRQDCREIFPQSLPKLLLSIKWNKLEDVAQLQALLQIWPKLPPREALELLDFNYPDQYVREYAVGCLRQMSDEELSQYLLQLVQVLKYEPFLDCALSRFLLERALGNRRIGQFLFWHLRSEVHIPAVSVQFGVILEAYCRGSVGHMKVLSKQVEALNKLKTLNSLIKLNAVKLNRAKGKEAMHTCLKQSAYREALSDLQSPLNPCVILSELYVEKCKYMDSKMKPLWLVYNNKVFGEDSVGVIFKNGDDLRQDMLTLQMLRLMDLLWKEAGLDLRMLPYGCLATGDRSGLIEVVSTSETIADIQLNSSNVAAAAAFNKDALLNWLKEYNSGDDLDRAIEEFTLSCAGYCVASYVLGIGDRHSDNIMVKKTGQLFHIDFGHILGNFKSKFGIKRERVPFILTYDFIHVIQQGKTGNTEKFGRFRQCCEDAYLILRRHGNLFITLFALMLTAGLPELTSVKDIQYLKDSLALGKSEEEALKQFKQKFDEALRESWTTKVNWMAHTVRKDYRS
T2 sequence (P27986 whole entry partner): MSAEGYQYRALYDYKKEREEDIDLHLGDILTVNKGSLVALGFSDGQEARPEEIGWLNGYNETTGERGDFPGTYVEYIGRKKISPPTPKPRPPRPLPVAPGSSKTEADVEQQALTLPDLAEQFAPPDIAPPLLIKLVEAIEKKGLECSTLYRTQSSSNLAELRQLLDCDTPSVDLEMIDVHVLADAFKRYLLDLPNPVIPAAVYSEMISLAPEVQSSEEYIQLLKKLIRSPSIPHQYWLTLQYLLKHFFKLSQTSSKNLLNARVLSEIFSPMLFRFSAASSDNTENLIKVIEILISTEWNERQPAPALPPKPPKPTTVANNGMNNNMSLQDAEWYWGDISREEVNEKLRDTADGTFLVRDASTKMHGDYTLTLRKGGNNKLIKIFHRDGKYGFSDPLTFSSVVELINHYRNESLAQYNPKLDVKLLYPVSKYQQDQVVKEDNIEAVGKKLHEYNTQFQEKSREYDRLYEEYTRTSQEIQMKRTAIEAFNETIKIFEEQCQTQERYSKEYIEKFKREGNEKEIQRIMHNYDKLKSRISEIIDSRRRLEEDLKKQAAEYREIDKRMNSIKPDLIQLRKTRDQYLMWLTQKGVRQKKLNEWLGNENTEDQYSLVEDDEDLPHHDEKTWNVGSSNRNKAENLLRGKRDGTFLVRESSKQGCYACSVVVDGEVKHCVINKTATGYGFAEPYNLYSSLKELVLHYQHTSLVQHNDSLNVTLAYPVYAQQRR
T3 sequence (P42336 whole entry E545K): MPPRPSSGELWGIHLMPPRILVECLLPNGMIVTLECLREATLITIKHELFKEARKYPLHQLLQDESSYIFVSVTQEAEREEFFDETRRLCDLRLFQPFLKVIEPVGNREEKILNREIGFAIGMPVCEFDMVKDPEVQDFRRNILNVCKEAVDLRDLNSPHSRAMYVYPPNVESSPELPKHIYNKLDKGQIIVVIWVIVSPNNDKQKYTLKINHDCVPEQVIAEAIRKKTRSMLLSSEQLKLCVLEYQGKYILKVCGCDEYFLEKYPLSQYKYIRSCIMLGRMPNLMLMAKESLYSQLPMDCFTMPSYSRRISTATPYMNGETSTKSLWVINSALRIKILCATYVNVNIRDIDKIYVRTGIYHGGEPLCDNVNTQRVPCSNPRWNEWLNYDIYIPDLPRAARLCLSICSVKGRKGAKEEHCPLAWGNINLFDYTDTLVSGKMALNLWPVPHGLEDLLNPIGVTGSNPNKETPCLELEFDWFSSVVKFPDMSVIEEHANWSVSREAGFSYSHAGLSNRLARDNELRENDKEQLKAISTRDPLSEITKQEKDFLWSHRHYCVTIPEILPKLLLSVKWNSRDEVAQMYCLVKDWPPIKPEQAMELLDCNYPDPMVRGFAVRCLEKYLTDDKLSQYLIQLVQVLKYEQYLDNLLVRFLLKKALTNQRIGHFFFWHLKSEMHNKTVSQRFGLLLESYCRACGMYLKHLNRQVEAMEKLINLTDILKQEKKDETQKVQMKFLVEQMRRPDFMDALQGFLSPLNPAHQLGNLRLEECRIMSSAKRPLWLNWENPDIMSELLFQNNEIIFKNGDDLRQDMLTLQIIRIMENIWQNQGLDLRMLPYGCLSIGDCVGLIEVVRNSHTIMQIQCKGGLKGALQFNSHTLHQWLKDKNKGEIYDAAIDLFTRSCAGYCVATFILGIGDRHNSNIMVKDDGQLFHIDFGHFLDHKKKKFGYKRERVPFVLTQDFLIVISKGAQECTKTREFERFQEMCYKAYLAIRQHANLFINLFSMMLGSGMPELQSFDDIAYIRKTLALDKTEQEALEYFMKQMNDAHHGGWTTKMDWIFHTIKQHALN
T3 sequence (P27986 whole entry partner): as the sequence (P27986 whole entry partner) above
T1 sequence (P42336 whole entry H1047R): as the sequence (P42336 whole entry E545K) above, with K545E, H1047R counted along it
T1 sequence (P27986 whole entry partner): as the sequence (P27986 whole entry partner) above

For the compound `CC(C)(C#N)c1ccc(-c2n[nH]c3cnc4ccc(-c5cccnc5)cc4c23)cc1` [Compound 1107, 2-methyl-2-(4-(8-(pyridin-3-yl)-3H-pyrazolo[3,4-c]quinolin-1-yl)phenyl)propanenitrile], the 50% inhibitory concentration (IC50) on PI3Kα(H1047R) was 0.005 to 0.025 µM; in experiment [1] it was 0.189 µM; at PI3Kβ, 0.035 to 0.05 µM; on PI3Kα(E545K), less than 0.01 µM.

Take `CC(C)(C#N)c1ccc(-c2n[nH]c3cnc4ccc(-c5cnc6ccccc6c5)cc4c23)cc1` [Compound 1078, 2-methyl-2-(4-(8-(quinolin-3-yl)-3H-pyrazolo[3,4-c]quinolin-1-yl)phenyl)propanenitrile]: the IC50 was more than 0.025 µM against PI3Kα(H1047R), 0.043 µM in experiment [1], more than 0.05 µM against PI3Kβ and 0.015 to 0.055 µM against PI3Kα(E545K).

As for `CC(C)(C#N)c1ccc(-c2n[nH]c3cnc4ccc(-c5ccc6ncccc6c5)cc4c23)cc1` [Compound 1110, 2-methyl-2-(4-(8-(quinolin-6-yl)-3H-pyrazolo[3,4-c]quinolin-1-yl)phenyl)propanenitrile], the IC50 against PI3Kα(H1047R) is more than 0.025 µM; in experiment [1], 0.21 µM; against PI3Kβ it was more than 0.05 µM; on PI3Kα(E545K), 0.015 to 0.055 µM.

The values are drawn from patent publication US20110212053A1, “PHOSPHATIDYLINOSITOL 3 KINASE INHIBITORS” (priority 2008, published 2011).
